The values that follow come from article PMC8618917 (Pharmaceutics, 2021).

Where two headings read alike, the source gives them in different places.

The nature of series [1]: Five-day repeated dose toxicity study. The following applies: mice; for Death / Time of 100% death after administration: intraperitoneal 10 mg/kg/day.
For series [2], the system named is MERS-CoV, SARS-CoV, and SARS-CoV-2. The series can be described thus: organism not typed. The series is classed as cell-based.
Series [3] deals with MERS-CoV. In words: microbe, parasite or virus in culture. The series is classed as cell-based. The following applies: for IC50: read-out: IC50, MERS-CoV virus-induced cytopathic effect.
The test system of the next series is SARS-CoV. In words: microbe, parasite or virus in culture. It is filed as cell-based. Particulars: read-out: IC50, inhibition of SARS-CoV infection.
A further series concerns SARS-CoV-2. The series can be described thus: microbe, parasite or virus in culture. It is filed as cell-based. The following applies: read-out: IC50, inhibition of SARS-CoV-2 infection.
In series [4] the test system is MERS-CoV. In words: microbe, parasite or virus in culture. Particulars: for IC50: read-out: IC50, inhibition of MERS-CoV infection. The series is classed as cell-based.
The nature of the next series: in vitro. Particulars: human.
The nature of series [5]: Plasma protein binding, mice (rapid equilibrium dialysis). Particulars: mouse. (Equilibrium dialysis compares concentrations on both sides of a semipermeable membrane.)
Series [6] is described as follows: Liver microsomal metabolic stability, mice. The following applies: 1 μM compound, liver microsomes, 30 min.
Series [7] can be described thus: Plasma protein binding, text summary over mouse and rat. The following applies: in mouse and rat.
A further series concerns CYP450 isozymes. The series can be described thus: CYP450 inhibition, text summary over isozymes.
Series [8] is described as follows: Rat pharmacokinetic study.
Series [9] can be described thus: Liver microsomal stability, text summary over mouse, rat and human. The following applies: rat, human, liver microsomes. On the technique in general: Microsomes from liver hold many membrane-bound enzymes, among them those of drug oxidation.
The nature of series [10]: Liver microsomal metabolic stability, rat. The following applies: 1 μM compound, liver microsomes, 30 min.
A short description of series [11]: Plasma protein binding, rat (rapid equilibrium dialysis).
A short description of series [12]: Liver microsomal metabolic stability, human. Particulars: 1 μM compound, liver microsomes, 30 min.
The mark [13] stands for this setting: intraperitoneal 2 mg/kg/day, data not shown.
[14] abbreviates: Middle East respiratory syndrome-related coronavirus, Calu-3, 72 h.
Where [15] appears, read: Severe acute respiratory syndrome coronavirus, Vero.
Where [16] appears, read: Severe acute respiratory syndrome coronavirus 2, Vero.
[17] abbreviates: Middle East respiratory syndrome-related coronavirus, Vero, 24 h.
Setting [18] is: intraperitoneal 10 mg/kg/day for 5 days.
[19] abbreviates: read-out: IC50, anti-coronavirus activity (range over both compounds and the viruses).
[20] abbreviates: male, Sprague-Dawley, plasma, iv, 1 mg/kg.
Where [21] appears, read: male, Sprague-Dawley, plasma, po, 2 mg/kg.

In general, IC50 refers to the concentration that gives 50% inhibition. Regarding `C[C@]12CC[C@H](O)C[C@H]1CC[C@@H]1[C@@H]2CC[C@]2(C)[C@@H](c3ccc(=O)oc3)CC[C@]12O` [bufalin], the Survival in series [1] (setting [13]) was determined as 100%. Further, in series [1], the Death is on record as 100%. For the same compound, the “Time of 100% death after administration” value in series [1] is recorded as 1 days. For the same compound, the IC50 in series [2] (read-out: IC50, anti-SARS-CoV and SARS-CoV-2 activity (range over both viruses)) is 0.016 to 0.019 µM; with MERS-CoV [3] (setting [14]) it was 0.544 µM; in the series with MERS-CoV [3] it was 0.544 µM; with SARS-CoV (setting [15]) it was 0.016 µM; with SARS-CoV-2 (setting [16]), 0.019 µM; in the series with MERS-CoV [4] (setting [17]), 0.018 µM. Besides, the “Selectivity index (SI)” value with MERS-CoV [3] is reported as > 91.9. Further, the CC50 in “in vitro” was > 50 µM.

In series [1] (setting [18]), `CC(=O)O[C@H]1C[C@]2(O)[C@@H]3CC[C@@H]4C[C@@H](O)CC[C@]4(C)[C@H]3CC[C@]2(C)[C@H]1c1ccc(=O)oc1` [bufotalin] yielded a Survival of 100%. Moreover, in the series on MERS-CoV [3], the “Selectivity index (SI)” value was > 30.7. Also, the IC50 in the series on MERS-CoV [3] (setting [14]) was 1.63 µM; in the series on SARS-CoV (setting [15]), 0.027 µM; in the series on SARS-CoV-2 (setting [16]) it was 0.0729 µM; in the series with SARS-CoV-2, 0.072 ± 0.001 µM; in the series on MERS-CoV [4] (setting [17]), 0.063 µM. Moreover, the CC50 in the series “in vitro” was > 50 µM.

One may read the fraction unbound as free concentration divided by total concentration. The low end stands for little free substance, the high end for much free substance. In general, inhibition refers to how much of the control response was suppressed. A high value points to strong suppression. For orientation: amount remaining means the share of the starting amount still present when the sample was taken. High values mean greater stability, low ones a greater loss. Compound `CC(=O)O[C@H]1[C@H]2O[C@]23[C@@H]2CC[C@@H]4C[C@@H](O)CC[C@]4(C)[C@H]2CC[C@]3(C)[C@H]1c1ccc(=O)oc1` [cinobufagin] showed a Survival in [1] (setting [13]) of 100%. The compound also registered a Death in series [1] of 100%. In addition, the “Time of 100% death after administration” value in series [1] is listed as 2 days. Also, the IC50 in the series on MERS-CoV [3] (setting [14]) was determined as 0.616 µM; in the series on MERS-CoV [3], 0.616 µM; in the series with SARS-CoV (setting [15]), 0.0609 µM; in the series on SARS-CoV, 0.06 ± 0.002 µM; in the series on SARS-CoV-2 (setting [16]), 0.0722 µM; with SARS-CoV-2, 0.072 ± 0.001 µM. Also, the IC50 in the series on MERS-CoV [4] (setting [17]) worked out at 0.017 µM. Also, the fraction unbound at 4 h, 5 μM is 0.092 in [5]; 0.1 to 0.22 in [7] (mouse, rat, plasma, PPB rate); 0.218 in [11]. In addition, the “MS (% of Remaining), Mice” value in series [6] is 0.18%. Besides, the inhibition at 10 µM in the series with CYP450 isozymes lay within 4 to 46%. Moreover, in [8] (1 mg/kg IV injection, data not shown), the “Time within which all rats (n = 3) died” value is ≤ 10 min. In addition, the “Detection in plasma after PO injection” value in [8] (30 min after PO injection, 2 mg/kg, data not shown) is on record as “not detected”. Moreover, in series [9], the amount remaining at 0.5 h, 1 μM was < 5%. The CC50 in “in vitro” was > 50 µM. In addition, the “MS (% of Remaining), Rat” value in [10] is reported as 4.40%. Further, the “MS (% of Remaining), Human” value in series [12] worked out at 2.99%.

`CC(=O)O[C@H]1[C@H]2O[C@]23[C@@H]2CC[C@]4(O)C[C@@H](O)CC[C@]4(C)[C@H]2CC[C@]3(C)[C@H]1c1ccc(=O)oc1` [cinobufotalin] had a Survival in [1] (setting [18]) of 100%. The IC50 in series [2] (setting [19]) was 0.231 to 1.61 µM; with MERS-CoV [3] (setting [14]), 3.96 µM; in the series with SARS-CoV (setting [15]), 0.429 µM; in the series on SARS-CoV, 0.429 ± 0.017 µM; with SARS-CoV-2 (setting [16]), 0.399 µM; in the series with SARS-CoV-2, 0.399 ± 0.008 µM. Moreover, the half-inhibitory concentration (IC50) stood at 0.23 µM with MERS-CoV [4] (setting [17]) and 0.231 ± 0.014 µM with MERS-CoV [4]. Further, the “Selectivity index (SI)” value with MERS-CoV [3] was > 12.6. In addition, the CC50 in “in vitro” is > 50 µM.

Turning to `C[C@H]1O[C@@H](O[C@H]2[C@@H](O)C[C@H](O[C@H]3[C@@H](O)C[C@H](O[C@H]4CC[C@@]5(C)[C@H](CC[C@@H]6[C@@H]5CC[C@]5(C)[C@@H](C7=CC(=O)OC7)CC[C@]65O)C4)O[C@@H]3C)O[C@@H]2C)C[C@H](O)[C@@H]1O` [digitoxin, Digitoxin], the Survival in series [1] (setting [13]) is given as 100%. This compound came in with a Death in series [1] of 100%. Besides, the “Time of 100% death after administration” value in [1] is given as 4 days. Besides, the “Selectivity index (SI)” value in the series on MERS-CoV [3] is > 33.4. Moreover, the IC50 with MERS-CoV [3] (setting [14]) is 1.5 µM; in the series with SARS-CoV (setting [15]) it was 0.0621 µM; in the series on SARS-CoV, 0.062 ± 0.001 µM; in the series on SARS-CoV-2 (setting [16]), 0.0599 µM; in the series with SARS-CoV-2, 0.059 ± 0.001 µM; in the series on MERS-CoV [4] (setting [17]) it was 0.067 µM. Moreover, in the series on MERS-CoV [4], the “Selectivity index (SI, CC50/IC50)” value is on record as > 147.9. For the same compound, the CC50 in the series “in vitro” is > 50 µM.

As to `C[C@]12CC[C@H](O)C[C@H]1CC[C@@H]1[C@@H]2CC[C@]2(C)[C@@H](c3ccc(=O)oc3)C[C@H]3O[C@]132` [resibufogenin], the IC50 in series [2] (setting [19]) is 0.231 to 1.61 µM; with MERS-CoV [3] (setting [14]), 16 µM; with SARS-CoV (setting [15]), 1.36 ± 0.059 µM; in the series on SARS-CoV-2 (setting [16]), 1.61 ± 0.063 µM; in the series with MERS-CoV [4] (setting [17]) it was 1.61 µM. In the series with MERS-CoV [3], the “Selectivity index (SI)” value is given as > 3.1. Also, the CC50 in “in vitro” was > 50 µM.

Usually AUC stands for concentration integrated over time. A high value points to high exposure. The Vd is the apparent volume that relates the amount in the body to the concentration in plasma or blood. Higher therefore signals wide distribution into tissue. The clearance is the volume of plasma or blood freed of the substance per unit of time. Lower therefore signals a low capacity for elimination. The half-life is the time needed for the level to fall by half in the phase considered. Low readings indicate fast loss, high ones slow loss. Broadly, the Cmax is the maximum level reached in the sampled fluid or tissue. As usually defined, the Tmax is the time from dosing to the highest level. One may read the bioavailability as dose-corrected exposure relative to a reference, in per cent. Higher therefore signals much systemic uptake. The compound `C[C@]12CC[C@H](O)C[C@@]1(O)CC[C@@H]1[C@@H]2CC[C@]2(C)[C@@H](c3ccc(=O)oc3)CC[C@]12O` [telocinobufagin] yielded a Survival in series [1] (setting [18]) of 100%. The IC50 in the series on MERS-CoV [3] (setting [14]) came to 0.465 µM; in the series on MERS-CoV [3], 0.465 µM; with SARS-CoV (setting [15]), 0.0712 µM; with SARS-CoV, 0.071 ± 0.002 µM; with SARS-CoV-2 (setting [16]), 0.142 µM; in the series on SARS-CoV-2 it was 0.142 ± 0.002 µM. Also, the IC50 in the series on MERS-CoV [4] (setting [17]) turned out to be 0.027 µM. Moreover, the fraction unbound at 4 h, 5 μM was 0.022 in series [5] and 0.032 in [11]. In addition, in [6], the “MS (% of Remaining), Mice” value is given as 21.7%. For the same compound, the PPB rate in series [7] is on record as 96–97%. This compound also yielded an inhibition at 10 µM with CYP450 isozymes of 1.4 to 21%. The “Ft (oral bioavailability)” value in series [8] (P.O., 2 mg/kg) is reported as 33.2%. The AUC amounted to 0.604 ± 0.159 µg·h/mL in [8] (setting [20]) and 0.488 ± 0.204 µg·h/mL in series [8] (setting [21]). Moreover, the Vd in series [8] (setting [20]) came to 0.275 ± 0.169 L/kg. For the same compound, the clearance in [8] (setting [20]) was 1.73 L/h/kg. The half-life is 13.5 ± 1.2 min in [8] (setting [20]) and 30.6 ± 24.4 min in series [8] (setting [21]). This compound also returned a Cmax in series [8] (setting [21]) of 0.537 ± 0.227 µg/mL. Further, the Tmax in series [8] (setting [21]) was found to be 20 ± 8.64 min. The bioavailability in [8] (male, Sprague-Dawley, plasma, po, 2 mg/kg, Ft (oral bioavailability), P.O.) is 33%. In series [9], this compound had an amount remaining at 0.5 h, 1 μM of 15 to 30%. The CC50 in the series “in vitro” was > 50 µM. For the same compound, the “MS (% of Remaining), Rat” value in series [10] turned out to be 31.9%. The “MS (% of Remaining), Human” value in [12] was 15.1%.
